Measured values: US6794414B1, “Method and compositions for treating diseases mediated by transglutaminase activity” (Yeda Research and Development Co. Ltd., priority 1998, dated 2004)
“Also recorded” adds a separate entry of the source.

Assays:
transglutaminase (TGase) = test: TGase assay on human brain extracts ([3H]putrescine incorporation into casein); type: biochemical; conditions: for TGase Activity + Casein + MDC / TGase Activity − Casein + MDC: 5 mM mono dansyl cadaverine, mean ± SEM, n = 2; for TGase Activity − Casein + MDC: no casein
Description: Each assay contained 80 μg of brain extract, 4 mg/ml N,N-dimethylated casein, 50 mM Tris (pH 8.0), 5 mM CaCl2, 5 mM dithiothreitol (DTT), and 0.37 mM putrescine (1:5, ^3 [H]putrescine:putrescine) in 80 μL. The reaction was incubated at 37° C. for 30 minutes. After it was washed in 500 μL of 10% trichloro acetic acid (TCA) and washed again in 100% ethanol, the reaction was resuspended in 220 μL of 0.1 M NaOH. The resuspended pellet was added to 10 ml of scintillation liquid. […] For lymphoid cells, 10^6 cells were suspended in 0.5 ml buffer for five minutes, then centrifuged at 1200×g for ten minutes.
Approximately 500 mg of brain tissue was homogenized in 2 ml of 10 mM Hepes (pH 7.4) containing 150 mM NaCl, 0.2 mg/ml leupeptin, 0.2 mg/ml aprotinin, 0.2 mg/ml pepstatin, and 0.5 mM phenylmethylsulfonyl fluoride (PMSF). The homogenate was centrifuged at 4° C. for ten minutes at 1000×g, and the supernatant was then centrifuged at 4° C. for ten minutes at 10,000×g to separate the cytoplasmic proteins. The remaining nuclear pellet was washed twice, for ten minutes each time, with the homogenization buffer at 4° C. at 1000×g, and then suspended in 1 ml of 10 mM Tris-Cl, 140 mM NaCl, 3 mM MgCl2, 0.5 mM PMSF, 0.1% sodium dodecyl sulfate (SDS), and 1% Nonylphenyl-polyethylene glycol (Nonidet P-40) (pH 7.4). The homogenate was spun at 4° C. for ten minutes at 8000×g. This procedure increased the level of beta-demn, a protein found more frequently in the cytoplasm than in the nucleus, enriching it 15.5-fold in the cytoplasm relative to the nucleus (Zhao et al, 1998).
This method for measuring brain transglutaminase was adapted from Folk and Cole (Folk et al, 1966). Casein serves as an excellent glutamine-containing protein substrate and […], while putrescine serves as the attacking nucleophile (Cooper et al, 1997). In the Huntington's Disease brain, in both the affected cortex andjin relatively unaffected areas like the cerebellum, which are affected in juvenile Huntington's Disease, transglutaminase activity was greater than in the corresponding areas of the control brain (HD cortex 14888±2864 cpm vs. normal cortex 6697±1410 cpm, mean ±1SEM, p<0.009 for HD cortex versus normal cortex; HD cerebellum 11221±2426 cpm vs. control cerebellum 2606±719 cpm, mean ±1SEM, p<0.001 for HD cerebellum versus control cerebellum.) Transglutaminase activity was also greater in extracts of nuclei from brains of Huntington's Disease patients than controls (HD brain cortical nuclear extract 6368±764 cpm vs. control brain cortical nuclear extract 2357±226 cpm, mean ±1SEM, Table 1).

[1] = tested on: mice with experimental autoimmune encephalomyelitis; test: Experimental autoimmune encephalomyelitis (EAE) in mice; type: in vivo; conditions: for Paralysis / paralytic disease in EAE: paraparetic mice with EAE
Description: Paraparetic mice with experimental autoimmune encephalomyelitis were administered one dose of monodansyl cadaverine. […] Thus, diseases mediated in part by transglutaminase can be treated with transglutaminase inhibitors.
0.05 mM monodansyl cadaverine was injected intraperitoneally into one of two groups of mice. The injection was given on day 13 after induction of disease, marked in the FIG. by an arrow.
To obtain the data shown in FIG. 6, experimental autoimmune encephalitis (EAE) was induced in ten week old SJL female mice. EAE was induced by an injection of 4 mg of mouse spinal cord homogenate in 1 ml of CFA. The injections were given intradermally in three places (two places in the flanks and one in the neck). On the same day, day 1, and on day 2, an intraperitoneal injection of pertussis toxin was given. The mice were treated with different concentrations of mono dansyl cadaverine on day 10. One group was injected twice on days 7 and 10 with […] mono dansyl cadaverine.
The grading score for EAE is 0, normal; 1, mild paraparesis; 2, paraparesis; 3, severe paraparesis; 4, quadriparesis; 5, dead.

[2] = biological target: T1, httQ23 (310 amino acids), P42858
T1 chain: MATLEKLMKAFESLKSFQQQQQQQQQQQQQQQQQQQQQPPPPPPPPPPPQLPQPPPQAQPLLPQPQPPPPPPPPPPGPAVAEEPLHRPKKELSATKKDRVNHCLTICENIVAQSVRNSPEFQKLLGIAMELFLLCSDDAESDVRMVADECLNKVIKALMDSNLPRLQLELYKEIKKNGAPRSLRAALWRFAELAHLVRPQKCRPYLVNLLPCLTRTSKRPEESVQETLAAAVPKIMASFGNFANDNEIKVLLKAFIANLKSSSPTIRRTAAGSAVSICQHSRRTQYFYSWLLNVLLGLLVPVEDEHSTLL

[3] = biological target: T2, httQ23 (90 amino acids), P42858
T2 chain: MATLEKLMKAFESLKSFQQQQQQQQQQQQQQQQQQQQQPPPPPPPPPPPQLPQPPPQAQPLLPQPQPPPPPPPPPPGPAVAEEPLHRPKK

[4] = biological target: T3, httQ41 (100 amino acids; elsewhere given as 110 amino acids), P42858
T3 chain: T2 chain

[5] = biological target: T4, httQ41 (330 amino acids), P42858
T4 chain: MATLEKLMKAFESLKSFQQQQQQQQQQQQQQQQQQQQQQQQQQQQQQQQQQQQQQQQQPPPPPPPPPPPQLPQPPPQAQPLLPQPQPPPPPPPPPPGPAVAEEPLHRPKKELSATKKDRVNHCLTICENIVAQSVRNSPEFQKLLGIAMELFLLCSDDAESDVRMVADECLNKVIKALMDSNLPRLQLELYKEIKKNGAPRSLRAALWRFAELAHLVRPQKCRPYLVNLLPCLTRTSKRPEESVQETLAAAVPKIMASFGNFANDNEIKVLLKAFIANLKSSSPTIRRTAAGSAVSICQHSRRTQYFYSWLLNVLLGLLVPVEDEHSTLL

[6] = biological target: T5, httQ67 (135 amino acids), P42858
T5 chain: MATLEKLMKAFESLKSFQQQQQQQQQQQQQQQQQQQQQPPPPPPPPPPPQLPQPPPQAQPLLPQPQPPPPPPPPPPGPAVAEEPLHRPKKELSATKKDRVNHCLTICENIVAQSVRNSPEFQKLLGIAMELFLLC

CN(C)c1cccc2c(S(=O)(=O)NCCCCCN)cccc12 [monodansyl cadaverine]
TGase Activity + Casein + MDC (transglutaminase (TGase); Control Cerebellum extract): 83 ± 14 CPM
TGase Activity − Casein + MDC (transglutaminase (TGase); Control Cerebellum extract): 117 ± 30 CPM
TGase Activity + Casein + MDC (transglutaminase (TGase); Control Cortex extract): 63 ± 10 CPM
TGase Activity − Casein + MDC (transglutaminase (TGase); Control Cortex extract): 151 ± 39 CPM
TGase Activity + Casein + MDC (transglutaminase (TGase); HD Cerebellum extract): 186 ± 57 CPM
TGase Activity − Casein + MDC (transglutaminase (TGase); HD Cerebellum extract): 58 ± 13 CPM
TGase Activity + Casein + MDC (transglutaminase (TGase); HD Cortex extract): 94 ± 18 CPM
TGase Activity − Casein + MDC (transglutaminase (TGase); HD Cortex extract): 81 ± 17 CPM
Inhibition of enzymatic (transglutaminase) activity of brain extract (transglutaminase (TGase); cytosolic extract from HD and control brain, putrescine incorporation into casein): completely inhibited
Effect on EAE (FIG. 5), p compared to control ([1]; 0.05 mM injected intraperitoneally on day 13 after induction, following the second day of injection): significant influence (p=0.03 compared to control)
Mononuclear cell infiltration in brains by hematoxilin-eosin staining ([1]; FIG. 5 experiment, versus vehicle-injected controls): high levels of infiltration
Side effects ([1]; mice treated in vivo): no untoward side effects
Lymphocytic infiltration / accumulation of inflammatory lymphocytes in brain ([1]; mice with EAE, histology): prevented the accumulation of inflammatory lymphocytes in the brain; also recorded: reversed
Paralysis / paralytic disease in EAE [1]: reversed paralytic disease; also recorded: Ongoing paralysis was reversed
Disease status after treatment ([1]; paraparetic mice with EAE treated in vivo): apparently free of disease; also recorded: free of disease after treatment
Paralysis / paralytic disease in EAE ([1]; listed as monodensyl cadaverine): can reverse ongoing paralysis

B1: guinea pig liver TGase (Sigma) (protein)
chain: AEDLILERCDLQLEVNGRDHRTADLCRERLVLRRGQPFWLTLHFEGRGYEAGVDTLTFNAVTGPDPSEEAGTMARFSLSSAVEGGTWSASAVDQQDSTVSLLLSTPADAPIGLYRLSLEASTGYQGSSFVLGHFILLYNPRCPADAVYMDSDQERQEYVLTQQGFIYQGSAKFINGIPWNFGQFEDGILDICLMLLDTNPKFLKNAGQDCSRRSRPVYVGRVVSAMVNCNDDQGVLQGRWDNNYSDGVSPMSWIGSVDILRRWKDYGCQRVKYGQCWVFAAVACTVLRCLGIPTRVVTNFNSAHDQNSNLLIEYFRNESGEIEGNKSEMIWNFHCWVESWMTRPDLEPGYEGWQALDPTPQEKSEGTYCCGPVPVRAIKEGHLNVKYDAPFVFAEVNADVVNWIRQKDGSLRKSINHLVVGLKISTKSVGRDEREDITHTYKYPEGSEEEREAFVRANHLNKLATKEEAQEETGVAMRIRVGQNMTMGSDFDIFAYITNGTAESHECQLLLCARIVSYNGVLGPVCSTNDLLNLTLDPFSENSIPLHILYEKYGDYLTESNLIKVRGLLIEPAANSYVLAERDIYLENPEIKIRVLGEPKQNRKLIAEVSLKNPLPVPLLGCIFTVEGAGLTKDQKSVEVPDPVEAGEQAKVRVDLLPTEVGLHKLVVNFECDKLKAVKGYRNVIIGPA
aggregation into a high molecular weight polymer (35S gel) [2]: upon addition of transglutaminase, both httQ23 (310 amino acids) and httQ41 (330 amino acids) aggregate into a high molecular weight polymer within 30 minutes
aggregation into a high molecular weight polymer (35S gel) [3]: upon addition of transglutaminase, httQ23 (90 amino acids), httQ41 (100 amino acids), and httQ67 (135 amino acids) all aggregate into a high molecular weight polymer within 30 minutes
aggregation into a high molecular weight polymer (35S gel) [4]: upon addition of transglutaminase, httQ23 (90 amino acids), httQ41 (100 amino acids), and httQ67 (135 amino acids) all aggregate into a high molecular weight polymer within 30 minutes
amount of aggregation compared to httQ23 (densitometry) [4]: 2-3 fold greater amount of aggregation of httQ41 and httQ67 compared to httQ23 at each concentration of transglutaminase
aggregation into a high molecular weight polymer (35S gel) [5]: upon addition of transglutaminase, both httQ23 (310 amino acids) and httQ41 (330 amino acids) aggregate into a high molecular weight polymer within 30 minutes
aggregation into a high molecular weight polymer (35S gel) [6]: upon addition of transglutaminase, httQ23 (90 amino acids), httQ41 (100 amino acids), and httQ67 (135 amino acids) all aggregate into a high molecular weight polymer within 30 minutes
amount of aggregation compared to httQ23 (densitometry) [6]: 2-3 fold greater amount of aggregation of httQ41 and httQ67 compared to httQ23 at each concentration of transglutaminase
